Experimental data as given in paper PMC9246196, “Novel pyrrolopyrimidine derivatives: design, synthesis, molecular docking, molecular simulations and biological evaluations as antioxidant and anti-inflammatory agents” (Journal of Enzyme Inhibition and Medicinal Chemistry, 2022).
≈ marks a conversion by molar mass, not a printed value.

Tests used:
RAW 264.7 cells = assay: MTT cytotoxicity against RAW 264.7 macrophage cells; assay type: cell-based; settings: RAW 264.7, MTT
Protocol: The macrophage cell line, RAW 264.7 was obtained from the ATCC (American type culture collection). The cells were cultured in RPMI 1640 medium (Roswell Park Memorial Institute) and supplemented with 1% pen/strep and 10% heat-inactivated foetal bovine serum. The cells were incubated, in a humidified incubator, in an atmosphere of 5% CO2 at 37 °C and were subculture twice before the experiment.
(§1) RAW 264.7 cells were suspended in a RPMI medium. After 24 h of seeding 1 × 10^5 cells per well (in 96 well plates) and incubated for 24 h for the experiments. The cells were then treated with the samples at concentrations of 100, 50, 25 and 12.5 μg/mL and incubated for 1 h. They were then stimulated with 10 μg/mL of LPS for another 24 h. The supernatant was gently transferred to new 96-well plates and used for NO determination, while the cells that remained in the old plate were used for the MTT assay of cell viability. Samples (stock) were dissolved in DMSO, and the working samples were prepared in the media. Cell viability was assessed by the mitochondrial dependent reduction of yellow MTT (3–(4,5-dimethylthiazol-2-yl)-2,5-diphenyltetrazolium bromide) to purple formazan.
The percentage of change in viability was calculated according to the formula: [(Reading of extract /Reading of negative control )−1]×100.

[1] = DPPH radical scavenging assay; assay type: biochemical
Protocol: DPPH scavenging potential of samples was determined with a slightly modified method[47]^,[48]. Each sample was prepared at 500 ppm. Serial concentrations of samples were prepared (200 µL, 400 µL and 800 µL). Methanol was added to complete the total volume to 1 mL and all the samples were vortexed well. 1 mL of 0.1 mM DPPH methanolic solution was added to each diluted sample. All the samples were vortexed again, then left to stand for 30 min in the dark at environment temperature. The absorption of the developed colour appeared against the blank reagent was measured at 517 nm using a spectrophotometer. BHT was used as a standard antioxidant. The capability to scavenge DPPH radical was estimated using the following equation: DPPH scavenging ability (% inhibition)=[(A0−A*)/A0]×100
A0 is Control absorption and A* is sample absorption.

[2] = test system: LPS-stimulated NO production by RAW 264.7 macrophages; assay: Nitric oxide assay (Griess) in LPS-induced RAW 264.7 macrophages; assay type: cell-based; settings: Mus musculus; for IC50: RAW264.7, LPS-induced RAW 264.7, read-out: NO inhibition IC50; for inhibition at 12.5 µg/mL / inhibition at 25 µg/mL / inhibition at 50 µg/mL / inhibition at 100 µg/mL: RAW264.7, LPS 10 µg/mL, read-out: NO % inhibition (mean ± SEM)
Protocol: as §1
Nitric oxide production was assayed by measuring nitrite in the supernatants of cultured LPS-RAW 264.7 cells. The assay was carried out as described previously with slight modification[48]^,[50]. After pre-incubation of RAW 264.7 cells (1 × 10^5 cells/mL) with LPS (10 µg/mL) for 24 h, the amount of nitrite, a stable metabolite of NO used as an indicator of NO production in the culture medium was measured using the Griess reagent (1% sulphanilamide and 0.1% naphthyl ethylenediamine dihydrochloride in 2.5% phosphoric acid). A volume of 50 µL of the cell culture medium was mixed with 50 µL of the Griess reagent. Subsequently, the mixture was incubated at room temperature for 15 min and the absorbance was measured at 540 nm by a microplate reader. Fresh culture medium was used as a blank in every experiment. The quantity of nitrite was determined from a sodium nitrite standard curve as expressed in the equation. Nitric oxide inhibition (%)=(optical denisty of control−optical denisty of test /optical denisty of control ) ×100.

With `NNc1ncnc2c1c(-c1ccccc1)cn2-c1cccc(Cl)c1` [2a, (7–(3-Chlorophenyl)-5-phenyl-7H-pyrrolo[2,3-d]pyrimidin-4-yl)-hydrazine] as the molecule, how does the melting point read?
The melting point was 204 to 206 °C.

For `NNc1ncnc2c1c(-c1ccccc1)cn2-c1ccc(Cl)cc1` [2b, (7–(4-Chlorophenyl)-5-phenyl-7H-pyrrolo[2,3-d]pyrimidin-4-yl)-hydrazine], which melting point is on record?
The melting point was 217 to 219 °C.

What does the source list for `Clc1cccc(-n2cc(-c3ccccc3)c3c2ncn2cnnc32)c1` [3a, 7–(3-Chlorophenyl)-9-phenyl-7H-pyrrolo[3,2-e][1,2,4]triazolo[4,3-c] pyrimidine]?
melting point: 176 to 178 °C; Cytotoxicity of raw cells% (mean ± SEM) (RAW 264.7 cells; 12.5 µg/mL): 0%; Cytotoxicity of raw cells% (mean ± SEM) (RAW 264.7 cells; 25 µg/mL): 76.5 ± 1.9%; Cytotoxicity of raw cells% (mean ± SEM) (RAW 264.7 cells; 50 µg/mL): 78.7 ± 2.2%; Cytotoxicity of raw cells% (mean ± SEM) (RAW 264.7 cells; 100 µg/mL): 92.0 ± 1.6%; DPPH radical-scavenging IC50 [1]: 160.05 mg/L; DPPH % Inhibition (mean ± SEM) ([1]; conc. 100 (µg/mL)): 39.56 ± 0.88%; DPPH % Inhibition (mean ± SEM) ([1]; conc. 200 (µg/mL)): 58.09 ± 1.50%; DPPH % Inhibition (mean ± SEM) ([1]; conc. 400 (µg/mL)): 62.51 ± 0.32%; IC50 [2]: 57.3 mg/L (≈ 166 µM); inhibition at 12.5 µg/mL [2]: 40.6 ± 2.6%; inhibition at 25 µg/mL [2]: 53.1 ± 1.3%; inhibition at 50 µg/mL [2]: 62.5 ± 1.2%; inhibition at 100 µg/mL [2]: 65.6 ± 1.2%

Which melting point does the source give for `Clc1ccc(-n2cc(-c3ccccc3)c3c2ncn2cnnc32)cc1` [3b, 7–(4-Chlorophenyl)-9-phenyl-7H-pyrrolo[3,2-e][1,2,4]triazolo[4,3-c] pyrimidine] here?
Its melting point is 190 to 192 °C.

Which melting point does the source give for `S=c1[nH]nc2c3c(-c4ccccc4)cn(-c4ccc(Cl)cc4)c3ncn12` [4b, 7–(4-Chlorophenyl)-9-phenyl-7H-pyrrolo[3,2-e][1,2,4]triazolo[4,3-c]pyramid in-3-thione] here?
Its melting point is 187 to 189 °C.

And the “Cytotoxicity of raw cells% (mean ± SEM)” value (RAW 264.7 cells; 12.5 µg/mL)?
The value was 0%.

And the “Cytotoxicity of raw cells% (mean ± SEM)” value (RAW 264.7 cells; 25 µg/mL)?
The value was 69.6 ± 1.3%.

And the “Cytotoxicity of raw cells% (mean ± SEM)” value (RAW 264.7 cells; 50 µg/mL)?
The value was 75.2 ± 2.5%.

And the “Cytotoxicity of raw cells% (mean ± SEM)” value (RAW 264.7 cells; 100 µg/mL)?
Its value is 85.4 ± 0.6%.

What about the “DPPH radical-scavenging IC50” value [1] of the same molecule?
Its value is 129.38 mg/L.

What about the “DPPH % Inhibition (mean ± SEM)” value ([1]; conc. 100 (µg/mL)) of the same molecule?
The value was 37.97 ± 0.71%.

And the “DPPH % Inhibition (mean ± SEM)” value ([1]; conc. 200 (µg/mL))?
The value was 77.76 ± 1.60%.

What about the “DPPH % Inhibition (mean ± SEM)” value ([1]; conc. 400 (µg/mL)) of the same molecule?
Its value is 79.55 ± 1.06%.

What about the IC50 [2] of the same molecule?
The IC50 was 64.8 mg/L (≈ 171 µM).

And the inhibition at 12.5 µg/mL [2]?
Its inhibition at 12.5 µg/mL is 39.8 ± 1.9%.

And the inhibition at 25 µg/mL [2]?
The inhibition at 25 µg/mL was 52.8 ± 1.1%.

What about the inhibition at 50 µg/mL [2] of the same molecule?
The inhibition at 50 µg/mL was 54.3 ± 1.6%.

And the inhibition at 100 µg/mL [2]?
The inhibition at 100 µg/mL was 58.1 ± 3.5%.

For `Cc1nnc2c3c(-c4ccccc4)cn(-c4cccc(Cl)c4)c3ncn12` [5a, 7–(3-Chlorophenyl)-3-methyl-9-phenyl-7H-pyrrolo[3,2-e][1,2,4]triazolo[4,3-c] pyrimidine], which melting point is on record?
Its melting point is 227 to 229 °C.

With `Cc1nnc2c3c(-c4ccccc4)cn(-c4ccc(Cl)cc4)c3ncn12` [5b, 7–(4-Chlorophenyl)-3-methyl-9-phenyl-7H-pyrrolo[3,2-e][1,2,4]triazolo[4,3-c] pyrimidine] as the molecule, how does the melting point read?
Its melting point is 201 to 203 °C.

Which melting point does the source give for `O=c1[nH]nc2c3c(-c4ccccc4)cn(-c4cccc(Cl)c4)c3ncn12` [6a, 7–(3-Chlorophenyl)-9-phenyl-7H-pyrrolo[3,2-e][1,2,4]triazolo[4,3-c]pyrimidin-3-one] here?
The melting point was 226 to 228 °C.

For `O=c1[nH]nc2c3c(-c4ccccc4)cn(-c4ccc(Cl)cc4)c3ncn12` [6b, 7–(4-Chlorophenyl)-9-phenyl-7H-pyrrolo[3,2-e][1,2,4]triazolo[4,3-c]pyrimidin-3-one], which melting point is on record?
The melting point was 233 to 235 °C.

Which melting point does the source give for `Cc1cc(C)n(-c2ncnc3c2c(-c2ccccc2)cn3-c2cccc(Cl)c2)n1` [7a, 7–(3-Chlorophenyl)-4–(3,5-dimethyl-pyrazol-1-yl)-5-phenyl-pyrrolo[2,3-d]pyrimidine] here?
Its melting point is 180 to 182 °C.

For `Cc1cc(C)n(-c2ncnc3c2c(-c2ccccc2)cn3-c2ccc(Cl)cc2)n1` [7b, 7–(4-Chlorophenyl)-4–(3,5-dimethyl-pyrazol-1-yl)-5-phenyl-pyrrolo[2,3-d]pyrimidine], which melting point is on record?
The melting point was 199 to 201 °C.

For `Clc1cccc(-n2cc(-c3ccccc3)c3c(N/N=C/c4ccccc4)ncnc32)c1` [8a, N-[(E)-benzylideneamino]-7–(3-chlorophenyl)-5-phenyl-pyrrolo[2,3-d]pyrimidin-4-amine], which melting point is on record?
The melting point was 187 to 189 °C.

For `Clc1ccc(-n2cc(-c3ccccc3)c3c(N/N=C/c4ccccc4)ncnc32)cc1` [8b, N-[(E)-benzylideneamino]-7–(4-chlorophenyl)-5-phenyl-pyrrolo[2,3-d]pyrimidin-4-amine], which melting point is on record?
Its melting point is 172 to 174 °C.

For `Clc1ccc(/C=N/Nc2ncnc3c2c(-c2ccccc2)cn3-c2cccc(Cl)c2)cc1` [8c, 7–(3-Chlorophenyl)-N-[(E)-(4-chlorophenyl)methyleneamino]-5-phenyl-pyrrolo[2,3-d]pyrimidin-4-amine], which melting point is on record?
Its melting point is 247 to 249 °C.

With `Clc1ccc(/C=N/Nc2ncnc3c2c(-c2ccccc2)cn3-c2ccc(Cl)cc2)cc1` [8d, 7–(4-Chlorophenyl)-N-[(E)-(4-chlorophenyl)methyleneamino]-5-phenyl-pyrrolo[2,3-d]pyrimidin-4-amine] as the molecule, how does the melting point read?
Its melting point is 187 to 189 °C.

For `COc1ccc(/C=N/Nc2ncnc3c2c(-c2ccccc2)cn3-c2cccc(Cl)c2)cc1` [8e, 7–(3-Chlorophenyl)-N-[(E)-(4-methoxyphenyl)methyleneamino]-5-phenyl-pyrrolo[2,3-d]pyrimidin-4-amine], which melting point is on record?
The melting point was 167 to 169 °C.

What about the “Cytotoxicity of raw cells% (mean ± SEM)” value (RAW 264.7 cells; 12.5 µg/mL) of the same molecule?
The value was 0%.

What about the “Cytotoxicity of raw cells% (mean ± SEM)” value (RAW 264.7 cells; 25 µg/mL) of the same molecule?
Its value is 65 ± 3.1%.

And the “Cytotoxicity of raw cells% (mean ± SEM)” value (RAW 264.7 cells; 50 µg/mL)?
Its value is 73.1 ± 1.3%.

What about the “Cytotoxicity of raw cells% (mean ± SEM)” value (RAW 264.7 cells; 100 µg/mL) of the same molecule?
The value was 77.7 ± 1.5%.

And the “DPPH radical-scavenging IC50” value [1]?
The value was 122.07 mg/L.

What about the “DPPH % Inhibition (mean ± SEM)” value ([1]; conc. 100 (µg/mL)) of the same molecule?
Its value is 40.63 ± 2.13%.

What about the “DPPH % Inhibition (mean ± SEM)” value ([1]; conc. 200 (µg/mL)) of the same molecule?
The value was 82.15 ± 0.14%.

What about the “DPPH % Inhibition (mean ± SEM)” value ([1]; conc. 400 (µg/mL)) of the same molecule?
Its value is 85.22 ± 0.17%.

What about the IC50 [2] of the same molecule?
The IC50 was ~53 mg/L (≈ 117 µM).

And the inhibition at 12.5 µg/mL [2]?
The inhibition at 12.5 µg/mL was 38.7 ± 1.7%.

What about the inhibition at 25 µg/mL [2] of the same molecule?
Its inhibition at 25 µg/mL is 66.5 ± 3.7%.

And the inhibition at 50 µg/mL [2]?
The inhibition at 50 µg/mL was 67.5 ± 1.8%.

What about the inhibition at 100 µg/mL [2] of the same molecule?
The inhibition at 100 µg/mL was 71.8 ± 1%.

Which melting point does the source give for `COc1ccc(/C=N/Nc2ncnc3c2c(-c2ccccc2)cn3-c2ccc(Cl)cc2)cc1` [8f, 7–(4-Chlorophenyl)-N-[(E)-(4-methoxyphenyl)methyleneamino]-5-phenyl-pyrrolo[2,3-d]pyrimidin-4-amine] here?
Its melting point is 194 to 196 °C.

What does the source list for `Cc1cc(C(C)(C)C)c(O)c(C(C)(C)C)c1` [BHT, butylated hydroxytoluene, reference compound]?
DPPH radical-scavenging IC50 [1]: 128.77 mg/L; DPPH % Inhibition (mean ± SEM) ([1]; conc. 100 (µg/mL)): 40.03 ± 0.39%; DPPH % Inhibition (mean ± SEM) ([1]; conc. 200 (µg/mL)): 76.81 ± 0.21%; DPPH % Inhibition (mean ± SEM) ([1]; conc. 400 (µg/mL)): 90.07 ± 0.26%
